By IC50 is commonly meant the concentration that gives 50% inhibition.

Here are results for one molecule from PMC4317859 (Cancer Science, 2014).

In data set [1] the test system is BT-474 cells. Description: Survival model, intracranial implantation. The format is in vivo, mice. The note with it: 200 mg/kg, oral daily.
The subject of data set [2] is HT115 (colon). The data set can be described thus: Growth inhibition assay. The note with it: Homo sapiens, HT115, 72 h, read-out: IC50, growth inhibition of cultured cells. The format is cell-based.
In data set [3] the test system is MDA-MB-175VII (breast). The data set can be described thus: Growth inhibition assay. The format is cell-based. As to conditions: Homo sapiens, 72 h, read-out: IC50, growth inhibition of cultured cells.
In data set [4] the test system is NCI-N87 cells. The data set can be described thus: Growth inhibition in the presence of human serum protein. The class given is cell-based. As to conditions: serum albumin or α1-acid glycoprotein vs standard medium.
The subject of data set [5] is MDA-MB-453 (breast). Description: Growth inhibition assay. The format is cell-based. As to conditions: Homo sapiens, MDA-MB-453, 72 h, read-out: IC50, growth inhibition of cultured cells.
The test system of data set [6] is MRC-5 (lung). Description: Growth inhibition assay. The format is cell-based. The note with it: Homo sapiens, MRC5, 72 h, read-out: IC50, growth inhibition of cultured cells.
Data set [7] has as its system α1-acid glycoprotein. As to conditions: cited from earlier work.
Data set [8] addresses serum albumin (Homo sapiens, UniProt P02768). The note with it: cited from earlier work.
The test system of data set [9] is SK-BR-3 (breast). Description: Growth inhibition assay. The class given is cell-based. The note with it: Homo sapiens, SK-BR-3, 72 h, read-out: IC50, growth inhibition of cultured cells.
For data set [10], the system named is NCI-N87 (stomach). The data set can be described thus: Growth inhibition assay. The class given is cell-based. As to conditions: Homo sapiens, NCI-N87, 72 h, read-out: IC50, growth inhibition of cultured cells.
A short description of data set [11]: Pharmacokinetics in nude mice. The note with it: from human plasma AUC and pharmacokinetic parameters in nude mice. The format is in vivo.
The conditions of data set [12]: clinical dose 1200–1250 mg, once daily; cited from earlier work.
In data set [13] the test system is BT-474 (breast). Description: Growth inhibition assay. The class given is cell-based. The note with it: Homo sapiens, BT-474, 72 h, read-out: IC50, growth inhibition of cultured cells.
Data set [14] relates to Calu-3 (lung). The data set can be described thus: Growth inhibition assay. The class given is cell-based. As to conditions: Homo sapiens, Calu-3, 72 h, read-out: IC50, growth inhibition of cultured cells.

Chain of serum albumin (P02768 25-609): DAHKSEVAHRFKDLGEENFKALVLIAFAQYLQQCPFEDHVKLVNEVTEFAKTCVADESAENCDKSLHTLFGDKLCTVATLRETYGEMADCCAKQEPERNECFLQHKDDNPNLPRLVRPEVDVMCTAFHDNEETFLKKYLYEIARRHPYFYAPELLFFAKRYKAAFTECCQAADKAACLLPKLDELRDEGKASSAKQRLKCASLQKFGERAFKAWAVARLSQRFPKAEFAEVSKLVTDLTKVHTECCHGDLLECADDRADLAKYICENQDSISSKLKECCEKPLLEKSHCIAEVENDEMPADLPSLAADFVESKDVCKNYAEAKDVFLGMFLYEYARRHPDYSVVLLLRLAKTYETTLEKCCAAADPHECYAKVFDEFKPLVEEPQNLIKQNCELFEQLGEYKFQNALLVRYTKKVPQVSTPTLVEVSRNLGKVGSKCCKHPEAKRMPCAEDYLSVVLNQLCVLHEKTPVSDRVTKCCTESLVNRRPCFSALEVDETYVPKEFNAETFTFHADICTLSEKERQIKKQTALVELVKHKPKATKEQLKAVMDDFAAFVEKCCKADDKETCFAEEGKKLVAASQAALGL

Turning to `CS(=O)(=O)CCNCc1ccc(-c2ccc3ncnc(Nc4ccc(OCc5cccc(F)c5)c(Cl)c4)c3c2)o1` [Lapatinib, N-{3-chloro-4-[(3-fluorobenzyl)oxy]phenyl}-6-[5-({[2-(methylsulfonyl)ethyl]amino}methyl)-2-furyl]-4-quinazolinamine], in data set [1], the Survival result is on record as “not significant”. The IC50 in data set [2] stood at 100 ± 1.5 nM; in [3], 70.2 ± 10.2 nM; in [5], 170 ± 3 nM; in [6], 9140 ± 643 nM; in data set [9] it was 56.9 ± 5.4 nM; in [10] it was 36.4 ± 5.2 nM. In addition, the 50% inhibitory concentration (IC50) was found to be 29.4 ± 2.2 nM in data set [13] and 510 ± 85.8 nM in data set [14]. The “Elevation of IC50 by addition of serum proteins” value in data set [4] is reported as 10.6–12.7 fold. In data set [7], the “Bound to α1-acid glycoprotein” value is on record as over 99%. Besides, the “Bound to serum albumin” value in data set [8] is over 99%. The “Clinically relevant dose in mice (assumed)” value in [11] is reported as “approximately 50 mg/kg”. In [12], the “Human plasma AUC” value was 14300 to 36200 ng·h/mL.
